Several values for one entry are separate records, joined by “and”; a condition that tells them apart may be missing. Equal values may be shown once. Read-outs that look alike come from different tables or passages of the source.
Biological target: F.Xa (factor Xa of bovine origin) (Bos taurus, UniProt P00743)
Details: for conversion chart constant e (equation 2, anti-Xa activity % to ng/ml) / conversion chart constant i (equation 2, anti-Xa activity % to ng/ml): non-linear regression of equation 2
From the text: The reagents from the commercial kit STA®—Liquid Anti-Xa (Diagnostica Stago, Asniéres sur Seine, France), F.Xa (factor Xa of bovine origin) and substrate (MAPA-Gly-Arg-pNA) were used. These commercial reagents and also the pool of normal human plasma Pool Norm (Diagnostica Stago, Asnieres sur Seine, France), the Owren Koller buffer (OKB) (pH 7.35, STA®—Owren-Koller, Diagnostica Stago, Asnieres sur Seine, France) and the desorption solution (DU) STA®—Desorb U (Diagnostica Stago, Asnieres sur Seine, France) were regenerated at room temperature for 30 minutes, as recommended by the manufacturer.
The kinetics were monitored by colorimetry at 405 nm, detecting the release of para-nitroanilide (pNA). The optical density (OD) was measured every two seconds. Two methodologies were optimized for assaying the three direct oral anti-Xa anticoagulants: the broad-range methodology and the narrow-range methodology. This is because the broad-range methodology makes it possible to assay the anticoagulants over the whole of the desired range; however, since the measurement of low concentrations of these anticoagulants requires great precision a narrow-range methodology was therefore developed.
In broad range, 6.25 μl of biological sample (plasma) were diluted with OKB in a final volume of 50 μl. The microcuvette was incubated for 240 seconds at 37° C. in the presence of 150 μl of substrate. The reaction was started by the addition of 150 μl of F.Xa, incubated beforehand at 37° C. In narrow range, 25 μl of sample were diluted with 25 μl of OKB. The experimental conditions for addition of substrate and enzyme are the same as for the broad-range methodology. The gradients were determined between 50 and 80 seconds.
The calibration was carried out from a range of F.Xa composed of 10 points ranging from 10% to 100% F.Xa, corresponding to an anti-Xa activity ranging from 90% to 0%. The range was created from reagents from the kit STA® Liquid Anti-Xa. The F.Xa (2 ml, 1.8 ml, . . . , 0.2 ml) was diluted in OKB (0 ml, 0.2 ml . . . 1.8 ml) for a final volume of 2 ml. The pool of healthy plasmas dated 04/2014 was used for this experiment. 5% DMSO was diluted to 1/20th in the plasma. The results (measurements of the OD/min between 50 and 80 seconds) were determined in two replicates.
The gradients of the kinetics measured for the 10 calibration points make it possible to plot the graph of anti-Xa activity (%) as a function of the OD/min. The equation of the line obtained is used to convert the OD/min of the samples tested into anti-Xa activity as percentage. The equation of the line is given by a polynomial regression of first order or of second order.
The parameters of the chart, specific to each direct oral anticoagulant (DOA), were determined for both of the methodologies (broad-range methodology and narrow-range methodology) by a non-linear regression of equation 2 on a few experimental points. […] The OD/min was measured for each sample between 50 and 80 seconds.
The limit of blank (LoB) was determined according to a standard procedure. The five different plasmas used were those dated January 2011, March 2012, April 2014, November 2014 and February 2015. Four replicates were carried out each day for three days, on the same automated device. The tests were carried out for the broad-range and narrow-range methodologies.
The limit of detection (LoD) was determined according to a standard procedure. Low-analyte plasmas were prepared. The overloads were carried out to 1/20th. The plasma dated 04/2014 was used. […] In narrow range, the concentrations of the overloads were 5 ng/ml for the three anticoagulants. Five overloads were produced for a final volume of 900 μl. When the regression of the universal calibration was a second-order polynomial, the concentrations of analytes in broad range and in narrow range were 2 ng/ml for the three direct oral anticoagulants (DOAs). The final volume of the overloads was 1000 μl. Each overload was separated into three tubes.

[1] = broad-range methodology, plasma sample diluted 1/8 in OKB, linear universal calibration
[2] = narrow-range methodology, plasma sample diluted 1/2 in OKB, linear universal calibration
[3] = optimization in narrow-range methodology, universal calibration regressed by second-order polynomial

F.Xa (factor Xa of bovine origin), sequence (P00743 234-492 limits assumed): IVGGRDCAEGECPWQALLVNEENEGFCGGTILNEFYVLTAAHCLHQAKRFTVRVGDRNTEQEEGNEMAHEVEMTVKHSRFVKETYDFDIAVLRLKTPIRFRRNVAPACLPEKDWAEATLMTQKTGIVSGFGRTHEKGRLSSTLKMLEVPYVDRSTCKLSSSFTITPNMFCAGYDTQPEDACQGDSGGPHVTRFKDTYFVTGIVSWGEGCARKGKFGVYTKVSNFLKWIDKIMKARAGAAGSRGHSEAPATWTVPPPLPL
F.Xa (factor Xa of bovine origin), sequence (P00743 41-180 partner limits assumed): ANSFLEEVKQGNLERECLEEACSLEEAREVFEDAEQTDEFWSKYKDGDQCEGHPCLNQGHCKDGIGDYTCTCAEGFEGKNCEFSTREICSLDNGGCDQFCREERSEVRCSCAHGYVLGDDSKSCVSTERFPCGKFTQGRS

COc1ccc(-n2nc(C(N)=O)c3c2C(=O)N(c2ccc(N4CCCCC4=O)cc2)CC3)cc1 [apixaban]
conversion chart constant e (equation 2, anti-Xa activity % to ng/ml) (broad-range methodology): 14.66 | conversion chart constant i (equation 2, anti-Xa activity % to ng/ml) (broad-range methodology): 1.35 | LoB (limit of blank) [1]: 16.613 ng/mL | LoD (limit of detection) [1]: 21.8 ng/mL and 21.723 ng/mL | conversion chart constant e (equation 2, anti-Xa activity % to ng/ml) (narrow-range methodology): 13.23 | conversion chart constant i (equation 2, anti-Xa activity % to ng/ml) (narrow-range methodology): 2.91 | LoB (limit of blank) [2]: 5.450 ng/mL | LoD (limit of detection) [2]: 6.9 ng/mL and 6.882 ng/mL | LoB (limit of blank) [3]: 2.759 ng/mL | LoD (limit of detection) [3]: 4.001 ng/mL

Reference: patent publication US20190136292A1, “Universal Calibration Method for Assaying Enzymatic Inhibitors” (Diagnostica Stago, priority 2016, published 2019)
